Results as given in patent US8304443B2, “Indazole derivatives” (Asahi Kasei Pharma Corporation, priority 2008, dated 2012).
Read-outs that look alike come from different tables or passages of the source.

Key:
[1] = target: T1, human α1A adrenergic receptor (Homo sapiens, UniProt P35348); assay: Test example 4: human α1A adrenergic receptor agonist activity (Ca flux, Fura-2); type: cell-based; settings: Test example 4, maximum response to norephinephrine taken as 100%; for Emax: read-out: α1A receptor I.A.
T1 construct: expressed in transfected cells; host or cells: HEK293 cells, pcDNA3.1(−), geneticin-selected
T1 sequence (P35348 1-466): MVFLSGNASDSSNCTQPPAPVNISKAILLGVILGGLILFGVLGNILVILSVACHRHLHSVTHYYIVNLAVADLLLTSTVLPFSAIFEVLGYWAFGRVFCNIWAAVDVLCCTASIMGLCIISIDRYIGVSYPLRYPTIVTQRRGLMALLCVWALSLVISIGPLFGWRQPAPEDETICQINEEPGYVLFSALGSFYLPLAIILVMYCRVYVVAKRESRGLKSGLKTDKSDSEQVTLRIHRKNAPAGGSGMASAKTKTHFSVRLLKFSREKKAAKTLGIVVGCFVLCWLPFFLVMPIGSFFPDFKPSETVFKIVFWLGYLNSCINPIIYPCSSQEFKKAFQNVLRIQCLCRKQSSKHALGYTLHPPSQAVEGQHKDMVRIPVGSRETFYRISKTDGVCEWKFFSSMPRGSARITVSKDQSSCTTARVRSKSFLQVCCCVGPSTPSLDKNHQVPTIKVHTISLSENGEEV
Method: Human α1A adrenergic receptor agonist activity is determined by using HEK293 cells transfected with pcDNA3.1(−) (Invitrogen) to which human α1A gene has been inserted. These cells are cultured in a DMEM medium containing 10% fetal bovine serum, 400 μg/mL geneticin (Gibco BRL), 100 U/ml penicillin and 100 μg/ml streptomycin. […] After carrying out the loading for 30 minutes in a CO2 incubator, excess Fura-2AM is removed by washing the cells twice with the assay buffer. The cells obtained after the centrifuge is prepared to 5×10^6 cells/ml by using the assay buffer, and aliquoted into a 96-well UV plate (manufactured by Corning Inc.) to give a cell plate (80 μl/well). […] After the measurement for about 30 seconds, 20 μl of the test sample from the sample plate is added to the cell plate and the measurement is continued for another 270 seconds. Ca flux caused by the test compound is obtained from the peak height difference between the maximum value of fluorescence intensity ratio at 340 nm and 380 nm after the addition of the test compound and the fluorescence intensity ratio before the addition of the test compound. Maximum response to norephinephrine as a positive control is taken as 100%, and the maximum response ratio of each test compound is obtained as Intrinsic Activity [I.A. (%)].

[2] = target: T2, human β1 adrenergic receptor (Homo sapiens, UniProt P08588); assay: Test example 2-B: human β1 adrenergic receptor agonist activity; type: cell-based; settings: 0.5 h; read-out: β1 receptor I.A.
T2 construct: expressed in transfected cells; host or cells: CHO (Chinese hamster ovary) cells, pcDNA3
T2 sequence (P08588 whole entry): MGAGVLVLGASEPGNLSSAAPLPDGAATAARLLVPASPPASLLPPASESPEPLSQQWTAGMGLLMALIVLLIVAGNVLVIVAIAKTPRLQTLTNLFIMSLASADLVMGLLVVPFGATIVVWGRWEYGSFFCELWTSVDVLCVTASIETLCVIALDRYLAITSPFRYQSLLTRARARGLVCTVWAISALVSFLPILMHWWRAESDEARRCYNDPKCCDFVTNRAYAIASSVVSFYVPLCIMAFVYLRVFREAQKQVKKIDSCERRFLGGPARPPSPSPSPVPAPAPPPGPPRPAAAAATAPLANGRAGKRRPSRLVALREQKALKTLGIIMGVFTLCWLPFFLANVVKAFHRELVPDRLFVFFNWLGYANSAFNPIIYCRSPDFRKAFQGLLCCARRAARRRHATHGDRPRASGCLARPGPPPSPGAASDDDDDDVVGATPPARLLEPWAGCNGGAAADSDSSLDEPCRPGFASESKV

[3] = target: T3, human β3 adrenergic receptor (Homo sapiens, UniProt P13945); assay: Test example 1-B: human β3 adrenergic receptor agonist activity (cAMP-Screen, 96-well); type: cell-based; settings: for Emax: 0.5 h, read-out: β3 receptor I.A.; for EC50: CHO cells with human β3 gene, cAMP
T3 construct: used as a probe to obtain the full length human β3 gene from a human genomic library (Clonetech); expressed in transfected cells; host or cells: CHO (Chinese hamster ovary) cells, pcDNA3, geneticin-selected
T3 sequence (P13945 whole entry): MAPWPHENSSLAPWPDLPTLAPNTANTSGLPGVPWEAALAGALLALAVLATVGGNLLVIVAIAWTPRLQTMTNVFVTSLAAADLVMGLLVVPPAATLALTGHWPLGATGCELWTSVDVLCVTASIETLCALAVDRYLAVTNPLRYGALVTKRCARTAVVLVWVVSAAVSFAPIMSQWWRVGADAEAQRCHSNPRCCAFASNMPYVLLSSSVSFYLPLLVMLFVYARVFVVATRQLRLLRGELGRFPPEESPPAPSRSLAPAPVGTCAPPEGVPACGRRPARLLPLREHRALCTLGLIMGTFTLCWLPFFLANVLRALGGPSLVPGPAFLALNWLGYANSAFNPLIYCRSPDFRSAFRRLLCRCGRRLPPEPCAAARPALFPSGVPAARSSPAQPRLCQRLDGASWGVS
Method: Human β3 adrenergic receptor agonist activity is determined using CHO (Chinese hamster ovary) cells transfected with pcDNA3 (Invitrogen) to which human β3 gene has been inserted. […] This human β3 cDNA fragment is used as a probe to obtain the full length human β3 gene from a human genomic library (Clonetech). The above cells are cultured in a Ham's F-12 medium containing 10% fetal bovine serum and 400 μg/mL geneticin (Invitrogen). After seeding these cells into a 96-well plate (2×10^4 cells/well) and culturing them for about 20 hours, they are allowed to stand in a serum-free Ham's F-12 medium (80 μL) for 15 minutes. The test compound is first dissolved in DMSO, serially diluted with Ham's F-12 comprising 100 mmol/L HEPES and 1 mmol/L isobutylmethylxanthine, and then 20 μL of the solution is added to the cells. After the cells are cultured for 30 minutes, the medium is removed, followed by addition of assay/lysis buffer (0.1 ml) included in cAMP-Screen Kit (manufactured by Applied Biosystems). The cells are incubated for 30 minutes at 37° C. The resulting cell lysate is determined to cAMP quantitation by using cAMP-Screen kit described above.

[4] = target: T4, human β2 adrenergic receptor (Homo sapiens, UniProt P07550); assay: Test example 3-B: human β2 adrenergic receptor agonist activity; type: cell-based; settings: read-out: β2 receptor I.A.
T4 construct: expressed in transfected cells; host or cells: CHO (Chinese hamster ovary) cells, pcDNA3
T4 sequence (P07550 whole entry): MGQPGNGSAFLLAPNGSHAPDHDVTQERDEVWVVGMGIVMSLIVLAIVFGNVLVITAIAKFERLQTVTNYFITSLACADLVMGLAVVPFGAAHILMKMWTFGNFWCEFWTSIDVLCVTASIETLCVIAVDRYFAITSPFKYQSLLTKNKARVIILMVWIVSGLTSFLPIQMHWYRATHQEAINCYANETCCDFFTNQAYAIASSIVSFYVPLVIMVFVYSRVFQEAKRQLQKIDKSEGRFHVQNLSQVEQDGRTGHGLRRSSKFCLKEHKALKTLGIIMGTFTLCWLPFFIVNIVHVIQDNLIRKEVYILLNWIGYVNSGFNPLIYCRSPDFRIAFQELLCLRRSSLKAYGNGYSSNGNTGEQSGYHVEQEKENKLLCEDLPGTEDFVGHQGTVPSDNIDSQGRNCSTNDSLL

[5] = test system: urinary bladder smooth muscle isolated from common marmoset; assay: Test example 7: relaxant activity on urinary bladder smooth muscle isolated from common marmoset; settings: strips contracted by 40 mmol/L KCl, papaverine 10^−4 mol/L relaxation = 100%
Method: Specifically, a common marmoset (CLEA Japan, Inc.) is bled to exsanguinated death, and then the urinary bladder is taken out of the marmoset via laparotomy. […] A resting tension of 1 g is applied to the strips, which is then equilibrated for more than 30 minutes. […] The final concentration is 10^−9, 10^−8, 10^−7, 10^−8, 10^−5 and 10^−4 mol/L. Upon the completion of the relaxation response to the test compound at the highest concentration, papaverine with final concentration of 10^−4 mol/L is added and the maximum relaxation response is obtained for each strip. This relaxation response is taken as 100%, and the relaxation ratio (%) is obtained for the test compound at the concentrations of 10^−5 and 10^−4 mol/L.

[6] = target: T3, human β3 adrenergic receptor; assay: Test example 1-A: human β3 adrenergic receptor agonist activity (cAMP EIA, 24-well); type: cell-based; settings: Table 3, maximum response to isoproterenol taken as 100%
Method: Human β3 adrenergic receptor agonist activity is determined using CHO (Chinese hamster ovary) cells transfected with pcDNA3 (Invitrogen) to which human β3 gene has been inserted. […] This human β3 cDNA fragment is used as a probe to obtain the full length human β3 gene from a human genomic library (Clonetech). The above cells are cultured in a Ham's F-12 medium containing 10% fetal bovine serum and 400 μg/mL geneticin (Invitrogen).

[7] = test system: rat under pentobarbital anesthesia; assay: Test example 9: effect on blood pressure and heart rate of a rat under pentobarbital anesthesia; type: in vivo; settings: male SD rat, 3 mg/kg intravenous bolus; greatest change of mean blood pressure relative to before administration; mean ± standard deviation
Method: After measuring blood pressure and heart rate of a rat under pentobarbital anesthesia, an effect of intravenous bolus administration of a test compound on blood pressure and heart rate can be determined. To a male SD rat (Japan SLC Inc.), sodium pentobarbital (Tokyo Chemical Industry Co., Ltd.) is intraperitoneally administered for induction of anesthesia (50 mg/kg). As maintenance anesthetics, sodium pentobarbital is subcutaneously administered (25 mg/kg). Left femoral vein is exposed and stripped, and then a polyethylene tube SP10 (connected to a three-way stopcock via ¼ vein needle) which has been filled with physiological saline is inserted and left in the vein.
Left medial femoral region is cut to expose and strip the femoral artery, and then a polyethylene tube (SP31, connected to a three-way stopcock via 22 G injection needle by TERUMO Corporation) which has been filled with heparin physiological saline is inserted and connected to a pressure transducer. Blood pressure is measured from the pressure transducer by using a modified pressure amplifier (AP-641 G, Nihon Kohden Corporation). Heart rate is measured by using the Heart rate Counter (AT-601 g, Nihon Kohden Corporation) while having the pulse wave of the blood pressure as a trigger. The blood pressure, mean blood pressure and heart rate are transmitted to the data recorder for recordation. In addition, the mean blood pressure is recorded using a modified pressure amplifier (AP-641 G) according to the equation of {diastolic blood pressure+(systolic blood pressure−diastolic blood pressure)/3}.
Blood pressure and heart rate measurement is started, and after confirming that each value remains almost constant, the test compound (3 mg/kg) is administered to the left femoral vein for 30 seconds. Specifically, the test compound with 3 mg/mL concentration is bolus administered at the administration dose of 1 mL/kg. Relative value (%) at each time point compared to the mean blood pressure and the heart rate before the administration is obtained for each individual. […]

Row | SMILES | Emax ([1]; Table 3) | α1A receptor I.A. ([1]; Table 4) | Emax ([1]; Table 4) | Emax [2] | Emax [3] | EC50 ([3]; Table 4, Test example 1-B) | Emax [4] | β3 receptor I.A. ([3]; Table 4, Test example 1-B, maximum response to isoproterenol taken as 100%) | β3 receptor I.A. [6] | relaxant activity (%) 10^−4 M ([5]; 10^−4 M) | relaxant activity (%) 10^−5 M ([5]; 10^−5 M) | increase in MBP (%) [7]
1 | CS(=O)(=O)Nc1cc([C@@H](O)CNCCOc2ccc3c(C4CC4)n[nH]c3c2)ccc1Cl [Example 5, (R)—N-(2-Chloro-5-(2-(2-(3-cyclopropylindazol-6-yloxy)ethylamino)-1-hydroxyethyl)phenyl)methanesulfonamide] |  |  | 0% | 23% | 59% | 19 nM | 9% |  |  |  |  | 
2 | CS(=O)(=O)Nc1cc([C@@H](O)CNCCOc2ccc3c(C4CC4)n[nH]c3c2)ccc1F [Example 4, (R)—N-(5-(2-(2-(3-Cyclopropylindazol-6-yloxy)ethylamino)-1-hydroxyethyl)-2-fluorophenyl)methanesulfonamide] |  |  | 0% | 9% | 52% | 24 nM | 8% |  |  |  |  | 
3 | COC(C)c1n[nH]c2cc(OCCNC[C@H](O)c3cccc(NS(C)(=O)=O)c3)ccc12 (stereo partly drawn) [Example 3, N-(3-((R)-1-Hydroxy-2-(2-(3-(1-methoxyethyl)-indazol-6-yloxy)ethylamino)ethyl)phenyl)methanesulfonamide] |  |  | 15% | 4% | 60% | 45 nM | 5% |  |  |  |  | 2.3 ± 0.9%
4 | CS(=O)(=O)Nc1cc([C@@H](O)CNCCOc2ccc3c(C4CCC4)n[nH]c3c2)ccc1F [Example 6, (R)—N-(5-(2-(2-(3-Cyclobutylindazol-6-yloxy)ethylamino)-1-hydroxyethyl)-2-fluorophenyl)methanesulfonamide] |  |  | 0% |  | 41% | 54 nM |  |  |  |  |  | 

Further lines, with some results ahead:

Row | Emax ([1]; Table 3) | α1A receptor I.A. ([1]; Table 4) | Emax ([1]; Table 4) | Emax [2] | Emax [3] | EC50 ([3]; Table 4, Test example 1-B) | Emax [4] | β3 receptor I.A. ([3]; Table 4, Test example 1-B, maximum response to isoproterenol taken as 100%) | β3 receptor I.A. [6] | SMILES | relaxant activity (%) 10^−4 M ([5]; 10^−4 M) | relaxant activity (%) 10^−5 M ([5]; 10^−5 M) | increase in MBP (%) [7]
5 | 100% | 100% |  |  |  |  |  |  |  | NC[C@H](O)c1ccc(O)c(O)c1 [Norepinephrine, reference compound] |  |  | 
6 |  |  | 5% | 30% | 51% | 56 nM | 1% |  |  | CS(=O)(=O)Nc1cc([C@@H](O)CNCCOc2ccc3c(OC(F)F)n[nH]c3c2)ccc1Cl [Example 9, (R)—N-(2-Chloro-5-(2-(2-(3-(difluoromethoxy)-indazol-6-yloxy)ethylamino)-1-hydroxyethyl)phenyl)methanesulfonamide] |  |  | 
7 |  |  | 5% |  | 51% | 584 nM |  |  |  | CS(=O)(=O)Nc1cc([C@@H](O)CNCCOc2ccc3c(OC(F)F)n[nH]c3c2)ccc1F [Example 7, (R)—N-(5-(2-(2-(3-(Difluoromethoxy)-indazol-6-yloxy)ethylamino)-1-hydroxyethyl)-2-fluorophenyl)methanesulfonamide] |  |  | 
8 |  |  |  |  |  |  |  | 100% | 100% | CC(C)NCC(O)c1ccc(O)c(O)c1 (centres unmarked) [isoproterenol, reference compound] | 66.2% | 60.9% | 
9 |  |  | 0% | 34% | 70% | 29 nM | 10% |  |  | CS(=O)(=O)Nc1cc([C@@H](O)CNCCOc2ccc3c(C4CCC4)n[nH]c3c2)ccc1Cl [Example 8, (R)—N-(2-Chloro-5-(2-(2-(3-cyclobutylindazol-6-yloxy)ethylamino)-1-hydroxyethyl)phenyl)methanesulfonamide] |  |  | 
